Converted amounts (≈) assume the structure as drawn. The source made the active and inactive calls. No cut-off for these calls is given here.
How the values were obtained:
[1] = Solubility of the compound at room temperature; format: physicochemical
Mus musculus [2] = test: Antiobesity activity in diet-induced obese C57Bl/6 mouse assessed as loss of liver weight at 50 mg/kg/day, po for 4 weeks administered with high-fat diet; format: functional
[3] = Total clearance in Sprague-Dawley rat at 5 mg/kg, iv; format: ADME, organism-based; parameters: dose 5 mg/kg, route intravenous; details: in vivo
[4] = Tmax in Sprague-Dawley rat at 5 mg/kg, iv; format: ADME, organism-based; parameters: dose 5 mg/kg, route intravenous; details: in vivo
Mus musculus [5] = test: Toxicity in diet-induced obese C57Bl/6 mouse assessed as change in food intake at 50 mg/kg/day, po for 4 weeks administered with high-fat diet; format: organism-based; parameters: route oral; details: in vivo, 672 h
Rattus norvegicus [6] = test: Acute toxicity in Sprague-Dawley rat assessed as mortality at 2.5 g/kg, po as single dose measured after 7 days; format: organism-based; details: in vivo, 2500 mg/kg, 168 h
Mus musculus [7] = test: Increase in glucose tolerance in diet-induced obese C57Bl/6 mouse assessed as time required for reducing plasma glucose to initial state at 50 mg/kg/day, po for 4 weeks by oral glucose tolerance test; format: functional
Mus musculus [8] = test: Antiobesity activity in diet-induced obese C57Bl/6 mouse assessed as reduction in triglyceride level at 50 mg/kg/day, po for 4 weeks administered with high-fat diet (reference value: 0.93 +/- 0.09 mM); format: functional
Mus musculus [9] = test: Antiobesity activity in diet-induced obese C57Bl/6 mouse assessed as reduction in HOMA-IR value at 50 mg/kg/day, po for 4 weeks administered with high-fat diet (reference value: 3.06 +/- 0.85 no_unit); format: functional
[10] = Total clearance in Sprague-Dawley rat at 20 mg/kg, po; format: ADME, organism-based; parameters: dose 20 mg/kg, route oral; details: in vivo
Mus musculus [11] = test: Antiobesity activity in diet-induced obese C57Bl/6 mouse assessed as loss of epididymal fat mass at 50 mg/kg/day, po for 4 weeks administered with high-fat diet; format: functional
Mus musculus [12] = test: Antiobesity activity in diet-induced obese C57Bl/6 mouse assessed as reduction in body weight at 50 mg/kg/day, po for 4 weeks administered with high-fat diet; format: functional; parameters: scale not given: the % may be the effect or the level left
Mus musculus [13] = test: Antiobesity activity in diet-induced obese C57Bl/6 mouse assessed as reduction in fasting blood glucose at 50 mg/kg/day, po for 4 weeks administered with high-fat diet (reference value: 5.0 +/- 1.30 mM); format: functional
[14] = Oral bioavailability in Sprague-Dawley rat at 20 mg/kg; format: ADME, organism-based; details: in vivo
Mus musculus [15] = test: Antiobesity activity in diet-induced obese C57Bl/6 mouse assessed as reduction in LDL level at 50 mg/kg/day, po for 4 weeks administered with high-fat diet (reference value: 0.14 +/- 0.07 mM); format: functional
[16] = AUC (0 to t) in Sprague-Dawley rat at 20 mg/kg, po; format: ADME, organism-based; parameters: dose 20 mg/kg, route oral; details: plasma
Rattus norvegicus [17] = test: Acute toxicity in Sprague-Dawley rat assessed as clinical signs at 2.5 g/kg, po as single dose measured after 7 days; format: organism-based; details: in vivo, 2500 mg/kg, 168 h
Rattus norvegicus [18] = test: Volume of distribution in Sprague-Dawley rat at 20 mg/kg, po; format: ADME, organism-based; parameters: dose 20 mg/kg, route oral; details: in vivo
[19] = Volume of distribution in Sprague-Dawley rat at 5 mg/kg, iv; format: ADME, organism-based; parameters: dose 5 mg/kg, route intravenous; details: in vivo
[20] = Cmax in Sprague-Dawley rat at 5 mg/kg, iv; format: ADME, organism-based; parameters: dose 5 mg/kg, route intravenous; details: in vivo
Mus musculus [21] = test: Toxicity in diet-induced obese C57Bl/6 mouse assessed as change in ALT level at 50 mg/kg/day, po for 4 weeks administered with high-fat diet (reference value: 33.00 +/- 18.23 U/L); format: organism-based; parameters: route oral; details: in vivo, 672 h
[22] = Half life in Sprague-Dawley rat at 20 mg/kg, po; format: ADME, organism-based; parameters: dose 20 mg/kg, route oral; details: in vivo
3T3-L1 = test: Inhibition of triglyceride accumulation in mouse 3T3L1 cells at 10 uM after 24 hrs; format: functional; details: 3T3-L1, 24 h
Mus musculus [23] = test: Antiobesity activity in diet-induced obese C57Bl/6 mouse assessed as reduction in FFA level at 50 mg/kg/day, po for 4 weeks administered with high-fat diet (reference value: 19.55 +/- 1.57 ng/L); format: functional
Mus musculus [24] = test: Antiobesity activity in diet-induced obese C57Bl/6 mouse assessed as change in insulin level at 50 mg/kg/day, po for 4 weeks administered with high-fat diet (reference value: 11.85 +/- 2.6 mU); format: functional
Mus musculus [25] = test: Toxicity in diet-induced obese C57Bl/6 mouse assessed as change in AST level at 50 mg/kg/day, po for 4 weeks administered with high-fat diet (reference value: 125.00 +/- 35.00 U/L); format: organism-based; parameters: route oral; details: in vivo, 672 h
[26] = AUC (0 to t) in Sprague-Dawley rat at 5 mg/kg, iv; format: ADME, organism-based; parameters: dose 5 mg/kg, route intravenous; details: plasma
[27] = Cmax in Sprague-Dawley rat at 20 mg/kg, po; format: ADME, organism-based; parameters: dose 20 mg/kg, route oral; details: in vivo
Mus musculus [28] = test: Increase in glucose tolerance in diet-induced obese C57Bl/6 mouse assessed as rate of reducing plasma glucose at 50 mg/kg/day, po for 4 weeks by oral glucose tolerance test; format: functional
Mus musculus [29] = test: Antiobesity activity in diet-induced obese C57Bl/6 mouse assessed as reduction in hepatic triglyceride level at 50 mg/kg/day, po for 4 weeks administered with high-fat diet by Oil Red O staining-based histological method; format: functional; parameters: scale not given: the % may be the effect or the level left
[30] = Half life in Sprague-Dawley rat at 5 mg/kg, iv; format: ADME, organism-based; parameters: dose 5 mg/kg, route intravenous; details: in vivo
Mus musculus [31] = test: Antiobesity activity in diet-induced obese C57Bl/6 mouse assessed as increase in HDL level at 50 mg/kg/day, po for 4 weeks administered with high-fat diet (reference value: 0.60 +/- 0.17 mM); format: functional
[32] = Tmax in Sprague-Dawley rat at 20 mg/kg, po; format: ADME, organism-based; parameters: dose 20 mg/kg, route oral; details: in vivo
Rattus norvegicus [33] = test: Acute toxicity in Sprague-Dawley rat assessed as change in body weight at 2.5 g/kg, po as single dose measured after 7 days; format: organism-based; details: in vivo, 2500 mg/kg, 168 h
Mus musculus [34] = test: Antiobesity activity in diet-induced obese C57Bl/6 mouse assessed as alteration of adipose tissue morphology at 20 to 50 mg/kg/day, po for 4 weeks administered with high-fat diet by Oil Red O staining-based histological method; format: functional, organism-based
Mus musculus [35] = test: Antiobesity activity in diet-induced obese C57Bl/6 mouse assessed as reduction in FFA level compound dosed po for 4 weeks with high-fat diet; format: functional, organism-based
Mus musculus [36] = test: Decrease in insulin resistance in diet-induced obese C57Bl/6 mouse assessed as induction of insulin secretion at 50 mg/kg/day, po for 4 weeks by insulin tolerance test; format: functional, organism-based
Mus musculus [37] = test: Antiobesity activity in diet-induced obese C57Bl/6 mouse assessed as reduction in fat accumulation in liver at 20 to 50 mg/kg/day, po for 4 weeks administered with high-fat diet by Oil Red O staining-based histological method; format: functional, organism-based
Mus musculus [38] = test: Antiobesity activity in diet-induced obese C57Bl/6 mouse assessed as reduction in fat accumulation in liver at 50 mg/kg/day, po for 4 weeks administered with high-fat diet by Oil Red O staining-based histological method; format: functional, organism-based
Mus musculus [39] = test: Increase in glucose tolerance in po dosed diet-induced obese C57Bl/6 mouse by oral glucose tolerance test; format: functional, organism-based
Mus musculus [40] = test: Antiobesity activity in diet-induced obese C57Bl/6 mouse assessed as reduction in HOMA-IR value compound dosed po for 4 weeks with high-fat diet; format: functional, organism-based
Mus musculus [41] = test: Antiobesity activity in diet-induced obese C57Bl/6 mouse assessed as normal liver morphology and histology at 50 mg/kg/day, po for 4 weeks administered with high-fat diet by Oil Red O staining-based histological method; format: functional, organism-based
Mus musculus [42] = test: Antiobesity activity in diet-induced obese C57Bl/6 mouse assessed as reduction in lipid droplets in liver at 50 mg/kg/day, po for 4 weeks administered with high-fat diet by Oil Red O staining-based histological method; format: functional, organism-based
Mus musculus [43] = test: Antiobesity activity in diet-induced obese C57Bl/6 mouse assessed as reduction in LDL level compound dosed po for 4 weeks with high-fat diet; format: functional, organism-based
Mus musculus [44] = test: Antiobesity activity in diet-induced obese C57Bl/6 mouse assessed as reduction in size of fat cells at 20 mg/kg/day, po for 4 weeks administered with high-fat diet by Oil Red O staining-based histological method; format: functional, organism-based
Mus musculus [45] = test: Decrease in insulin resistance in diet-induced obese C57Bl/6 mouse assessed as induction of insulin secretion at 20 mg/kg, po as single dose by insulin tolerance test; format: functional, organism-based; parameters: dose 20 mg/kg
Mus musculus [46] = test: Antiobesity activity in diet-induced obese C57Bl/6 mouse assessed as increase in HDL level compound dosed po for 4 weeks with high-fat diet; format: functional, organism-based
Mus musculus [47] = test: Antiobesity activity in diet-induced obese C57Bl/6 mouse assessed as reduction in fasting blood glucose compound dosed po for 4 weeks with high-fat diet; format: functional, organism-based
Mus musculus [48] = test: Increase in glucose tolerance in diet-induced obese C57Bl/6 mouse at 20 mg/kg, po as single dose by oral glucose tolerance test; format: functional, organism-based; parameters: dose 20 mg/kg
Mus musculus [49] = test: Increase in glucose tolerance in diet-induced obese C57Bl/6 mouse at 50 mg/kg/day, po for 4 weeks by oral glucose tolerance test; format: functional, organism-based
Mus musculus [50] = test: Decrease in insulin resistance in diet-induced obese C57Bl/6 mouse assessed as induction of insulin secretion at 20 mg/kg/day, po for 4 weeks by insulin tolerance test; format: functional, organism-based
Mus musculus [51] = test: Antiobesity activity in diet-induced obese C57Bl/6 mouse assessed as reduction in triglyceride level compound dosed po for 4 weeks with high-fat diet; format: functional, organism-based
Mus musculus [52] = test: Antiobesity activity in diet-induced obese C57Bl/6 mouse assessed as change in insulin level compound dosed po for 4 weeks with high-fat diet; format: functional, organism-based
Mus musculus [53] = test: Decrease in insulin resistance in po dosed diet-induced obese C57Bl/6 mouse assessed as induction of insulin secretion by insulin tolerance test; format: functional, organism-based
Mus musculus [54] = test: Increase in glucose tolerance in diet-induced obese C57Bl/6 mouse at 20 mg/kg/day, po for 4 weeks by oral glucose tolerance test; format: functional, organism-based

CCn1c(-c2ccc(OCCN(C)c3ccccn3)cc2)nc2c1c(=O)n(Cc1ccccc1C#N)c(=O)n2C [listing 1 of 2 here]
solubility [1]: 1000 µg/mL (≈ 1870 µM)
Activity (Mus musculus [2]): 16.8%
clearance [3]: 189 mL/min/kg
Tmax [4]: 4.98 min
Activity (Mus musculus [5]): Non-toxic
Activity (Rattus norvegicus [6]): Non-toxic
Time (Mus musculus [7]): >40 min
Activity (Mus musculus [8]): 1.02 mM
Activity (Mus musculus [9]): 3.06
CL/F [10]: 1030 mL/min/kg
Activity (Mus musculus [11]): 21.65%
Activity (Mus musculus [12]): 15.96%
Activity (Mus musculus [13]): 5.15 mM
bioavailability [14]: 28%
Activity (Mus musculus [15]): 0.11 mM
AUC(0-t) [16]: 453 ng·h/mL
Activity (Rattus norvegicus [17]): Non-toxic
Vd (Rattus norvegicus [18]): 416.501 L/kg
Vd [19]: 142 L/kg
Cmax [20]: 342 ng/mL
Activity (Mus musculus [21]): 20 U/L
half-life [22]: 6.3 h
inhibition at 10 µM (3T3-L1): 64.5%
Activity (Mus musculus [23]): 22.67 ng/L
Activity (Mus musculus [24]): 13.35 mU
Activity (Mus musculus [25]): 120 U/L
AUC(0-t) [26]: 404 ng·h/mL
Cmax [27]: 54.4 ng/mL
Activity (Mus musculus [28]): >2 %/min
Activity (Mus musculus [29]): 7.17%
half-life [30]: 8.83 h
Activity (Mus musculus [31]): 1.96 mM
Tmax [32]: 2.27 h
Activity (Rattus norvegicus [33]): Non-toxic

CCn1c(-c2ccc(OCCN(C)c3ccccn3)cc2)nc2c1c(=O)n(Cc1ccccc1C#N)c(=O)n2C [listing 2 of 2 here]
Activity (Mus musculus [34]): Active
Activity (Mus musculus [35]): Dose-dependent effect
Activity (Mus musculus [36]): Active
Activity (Mus musculus [37]): Active
Activity (Mus musculus [38]): Active
Activity (Mus musculus [39]): Dose-dependent effect
Activity (Mus musculus [40]): Dose-dependent effect
Activity (Mus musculus [41]): Active
Activity (Mus musculus [42]): Active
Activity (Mus musculus [43]): Dose-dependent effect
Activity (Mus musculus [44]): Active
Activity (Mus musculus [45]): Active
Activity (Mus musculus [46]): Dose-dependent effect
Activity (Mus musculus [47]): Dose-dependent effect
Activity (Mus musculus [48]): Active
Activity (Mus musculus [49]): Active
Activity (Mus musculus [50]): Active
Activity (Mus musculus [51]): Dose-dependent effect
Activity (Mus musculus [52]): Dose-dependent effect
Activity (Mus musculus [53]): Dose-dependent effect
Activity (Mus musculus [54]): Active
